Reference: patent US20040077659A1, “Method for treating ppar gamma mediated diseases or conditions” (priority 2003, published 2004)

Columns and labels:
[1] = tested on: Zucker Diabetic Fatty rats (ZDF fa/fa); experiment: Diabetic rat study, 28-day; type: in vivo; parameters: total serum protein: unit not given here; details: for glycemic control / insulin: 28-day treatment, relative to vehicle treatment; for hematocrit (% RBC volume): vehicle 49±0.3; for hemodilution as indicated by hematocrit and total serum protein: day 28, versus vehicle group
Procedure: The five PPAR pan agonist molecules prepared above were administered by oral gavage to genetically altered rodents that simulate the human disease of type 2 Diabetes Mellitus (Zucker Diabetic Fatty rats (ZDF fa/fa)). As a control a PPAR gamma agonist 2-[2-(methoxycarbonyl)anilino]-3-{4-[2-(5-methyl-2-phenyl-1,3-oxazol-4-yl)ethoxy]phenyl}propanoic acid was also tested. This PPAR gamma agonist can be prepared as described in Cobb, J. E., et al., N-(2-Benzoylphenyl)-L-tyrosine PPARg agonists. 3. Structure-activity relationship and optimization of the N-aryl substituent., J. Med. Chem. 1998, 41, 5055-5069. As an additional control, one group was treated with vehicle alone.
While all five hPPAR pan agonist molecules were evaluated in the above study for 7 days, one of these pan agonists, 2-{4-[({4-{[4-(4-methoxyphenyl)-1-piperazinyl]methyl}-2-[4-(triflouromethyl)phenyl]-1,3-thiazol-5-yl}methyl)sulfanyl]phenoxy}-2-methylpropanoic acid, and the PPAR gamma agonist were tested for 28 days. Animals were treated earlier than in the 7-day study, before the development of diabetes as measured by increased plasma glucose. Measurements were obtained at 7 day intervals and the PPAR pan agonist molecule (♦) was compared to vehicle control (*) and the PPAR gamma agonist (□). [formula] [formula] [formula]

[2] = tested on: Cynomolgus monkeys; experiment: Primate study, edema and hemodilution; type: in vivo, Cynomolgus monkey; details: oral once daily for 63 or 64 days, 1, 5 and 15 mg/kg
Procedure: In addition to the above rat studies, a primate study was conducted using the PPAR pan agonist 2-{4-[({4-{[4-(4-methoxyphenyl)-1-piperazinyl]methyl}-2-[4-(trifluoromethyl)phenyl]-1,3-thiazol-5-yl}methyl)sulfanyl]phenoxy}-2-methylpropanoic acid. In that study, male and female Cynomolgus monkeys were dosed orally once daily for 63 or 64 days with doses projected to provide greater than 3× the serum concentration needed to lower insulin resistance and serum glucose in diabetic patients. The animals were dosed at 0 mg/kg (control), 1 mg/kg, 5 mg/kg, and 15 mg/kg of the PPAR pan agonist. The animals were carefully observed for signs of edema and or hemodilution. Methods of evaluation during the in-life portion of the study included visual observation of swelling, particularly around the eyes and or genitals by a Board Certified pathologist, as well as evaluation of clinical hematology (red blood cell volume) and clinical chemistries (total serum protein) as evidence of hemodilution. At necropsy, careful examination for gross evidence of edema was based on palpation and careful examination of all issue. Special emphasis was given to the gross evaluation of subcutaneous tissue, all fat stores, lungs and all serous cavities.

Compound	body weight increase from the start of dosing ([1]; 28-day study) [%]	glycemic control [1]	insulin [1]	hematocrit (% RBC volume) ([1]; after 28 days)	hemodilution as indicated by hematocrit and total serum protein [1]	body weight gain compared with vehicle treated animals ([1]; 28-day study)	total serum protein ([1]; after 28 days, vehicle 7.5±0.2)	edema in tissues examined histologically [2]	signs of edema or hemodilution during in-life or necropsy portions [2]
COC(=O)c1ccccc1NC(Cc1ccc(OCCc2nc(-c3ccccc3)oc2C)cc1)C(=O)O (stereo not shown) [PPAR gamma agonist, 2-[2-(methoxycarbonyl)anilino]-3-{4-[2-(5-methyl-2-phenyl-1,3-oxazol-4-yl)ethoxy]phenyl}propanoic acid, reference compound]	120	maintained glycemic control	lowered insulin	43±1.0	evident	–	–	–	–
COc1ccc(N2CCN(Cc3nc(-c4ccc(C(F)(F)F)cc4)sc3CSc3ccc(OC(C)(C)C(=O)O)cc3)CC2)cc1 [PPAR pan agonist, 2-{4-[({4-{[4-(4-Methoxyphenyl)-1-piperazinyl]methyl}-2-[4-(trifluoromethyl)phenyl]-1,3-thiazol-5-yl}methyl)sulfanyl]phenoxy}-2-methylpropanoic acid]	–	maintained glycemic control	lowered insulin	48±0.9	not significantly different from the vehicle group	not significantly different from the vehicle treated animals	7.2±0.2	No evidence of edema	no signs or suggestions of edema or hemodilution
